The source of these data is publication PMC8400343, “Synthesis and Evaluation of the Antidepressant-like Properties of HBK-10, a Novel 2-Methoxyphenylpiperazine Derivative Targeting the 5-HT1A and D2 Receptors” (Pharmaceuticals, 2021).

Structures are written as SMILES. Where two headings read alike, the source gives them in different places.

Series [1] in a line: Metabolic stability in mouse liver microsomes (MLMs). Type of series: in vitro ADME. The method, then:
Next, the target compound was incubated with mouse liver microsomes in the presence of an NADPH regenerating system. In the initial screening phase, the percentage of the parent compound recovered after 30 min of incubation was calculated (Table 2). […] The assay was performed with mouse liver microsomes from male CD-1. […] Metabolic reactions were initiated by the addition of the NADPH regenerating system, containing NADP, glucose-6-phosphate, and glucose-6-phosphate dehydrogenase. […] Enzymatic reactions were quenched by perchloric acid followed by addition of internal standard (pentoxifylline). Negative controls were performed without NADPH-regenerating system. After centrifugation, samples were analyzed by LC/MS (UPLC/MS, Waters Corporation, Milford, MA, USA). In vitro half time (t1/2) and intrinsic clearance (Clint) of test compound in liver microsomes were determined according to literature procedures.
(In general: Liver microsomes are vesicles of endoplasmic reticulum, rich in cytochrome P450 enzymes.)

In a further series the target is T1, human 5-HT2A receptor (Homo sapiens, UniProt P28223).
T1 construct: expressed in transfected cells; host or cells: CHO-K1 (membranes)
T1 sequence (P28223 whole entry): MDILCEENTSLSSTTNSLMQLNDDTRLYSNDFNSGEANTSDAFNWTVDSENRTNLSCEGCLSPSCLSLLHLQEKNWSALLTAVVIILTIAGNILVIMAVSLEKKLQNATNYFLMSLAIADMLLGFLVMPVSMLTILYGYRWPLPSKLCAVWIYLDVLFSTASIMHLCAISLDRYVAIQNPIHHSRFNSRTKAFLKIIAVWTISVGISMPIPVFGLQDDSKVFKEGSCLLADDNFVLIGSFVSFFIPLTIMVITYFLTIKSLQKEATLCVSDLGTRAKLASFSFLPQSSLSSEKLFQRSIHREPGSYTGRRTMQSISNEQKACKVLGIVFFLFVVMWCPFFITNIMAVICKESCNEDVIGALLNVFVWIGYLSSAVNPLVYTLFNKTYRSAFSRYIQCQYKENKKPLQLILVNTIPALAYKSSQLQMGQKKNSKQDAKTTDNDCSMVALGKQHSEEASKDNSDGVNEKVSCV
Nature of the series: Radioligand binding, [3H]-ketanserin, CHO-K1 membranes. The following applies: CHO-K1 cells, mean ± SEM, read-out: Serotonergic pKi 5-HT2A (converted). As for the experimental part:
Radioligand binding was performed on membranes from CHO-K1 cells stably transfected with the human 5-HT1A, 5-HT2A, 5-HT6, or 5-HT7 receptors. […] Binding experiments were conducted in 96-well microplates, and the reaction mix included the solution of the test compound, radioligand, and diluted membranes or the tissue suspension.
The reaction was terminated by rapid filtration through GF/B or GF/C filter mate presoaked with 0.3% polyethyleneimine for 30 min. Ten rapid washes with 200 µl 50 mM Tris buffer (4 °C, pH 7.4) were performed using an automated harvester system Harvester-96 MACH III FM (Tomtec). […] Radioactivity was counted in the MicroBeta2 scintillation counter (PerkinElmer) at approximately 30% efficiency. […] A single assay was performed with each compound concentrations in duplicate, and the whole assay was repeated in a three independent experiments.

For series [2], the target named is T2, human serotonin 5-HT1A receptor (Homo sapiens, UniProt P08908).
T2 construct: expressed in transfected cells; host or cells: CHO-K1 (cryopreserved, whole cells)
T2 sequence (P08908 1-422): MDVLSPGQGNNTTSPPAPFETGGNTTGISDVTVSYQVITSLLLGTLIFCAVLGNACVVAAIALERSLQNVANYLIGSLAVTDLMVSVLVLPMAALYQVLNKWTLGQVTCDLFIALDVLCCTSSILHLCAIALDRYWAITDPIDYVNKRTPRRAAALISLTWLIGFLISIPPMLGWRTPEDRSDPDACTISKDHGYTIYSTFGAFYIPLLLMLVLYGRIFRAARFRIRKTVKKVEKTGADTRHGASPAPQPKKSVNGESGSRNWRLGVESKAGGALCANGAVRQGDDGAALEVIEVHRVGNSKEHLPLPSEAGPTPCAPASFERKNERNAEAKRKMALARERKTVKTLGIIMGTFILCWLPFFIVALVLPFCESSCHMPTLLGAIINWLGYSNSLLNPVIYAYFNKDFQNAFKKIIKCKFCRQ
As to the kind of experiment: Functional assay, inhibition of cAMP production, CHO-K1 cells. Type of series: cell-based. The method, then: Tested and reference compounds were dissolved in dimethyl sulfoxide (DMSO) at a concentration of 10 mM. Serial dilutions were prepared in 96-well microplate in assay buffer, and 8 to 10 concentrations were tested. […] Thawed cells were resuspended in stimulation buffer (HBSS, 5 mM HEPES, […], and 0.1% BSA at pH 7.4) at 2 × 10^5 cells/mL. The 10 µL of cell suspension was added to tested compounds with 10 µM forskolin. Samples were loaded onto a white opaque half area 96-well microplate. […] The agonist and antagonist were added simultaneously. Cell stimulation was performed for 40 min at room temperature. After incubation, cAMP measurements were performed with homogeneous TR-FRET immunoassay using the LANCE Ultra cAMP kit (PerkinElmer, Waltham, MA, USA). Ten microliters of EucAMP Tracer Working Solution and 10 µl of ULight-anti-cAMP Tracer Working Solution were added, mixed, and incubated for 1 h. The TR-FRET signal was read on an EnVision microplate reader (PerkinElmer, USA). IC50 and EC50 were determined by nonlinear regression analysis using GraphPad Prism 6.0 software.
In general terms: Cyclic AMP is a second messenger, typically raised through Gs and lowered through Gi signalling.

For a further series, the target named is T3, dopamine D2 receptor (Homo sapiens, UniProt P14416).
T3 construct: expressed in transfected cells; host or cells: recombinant CHO-K1 co-expressing mitochondrially targeted aequorin and Gαqi/5
T3 sequence (P14416 whole entry): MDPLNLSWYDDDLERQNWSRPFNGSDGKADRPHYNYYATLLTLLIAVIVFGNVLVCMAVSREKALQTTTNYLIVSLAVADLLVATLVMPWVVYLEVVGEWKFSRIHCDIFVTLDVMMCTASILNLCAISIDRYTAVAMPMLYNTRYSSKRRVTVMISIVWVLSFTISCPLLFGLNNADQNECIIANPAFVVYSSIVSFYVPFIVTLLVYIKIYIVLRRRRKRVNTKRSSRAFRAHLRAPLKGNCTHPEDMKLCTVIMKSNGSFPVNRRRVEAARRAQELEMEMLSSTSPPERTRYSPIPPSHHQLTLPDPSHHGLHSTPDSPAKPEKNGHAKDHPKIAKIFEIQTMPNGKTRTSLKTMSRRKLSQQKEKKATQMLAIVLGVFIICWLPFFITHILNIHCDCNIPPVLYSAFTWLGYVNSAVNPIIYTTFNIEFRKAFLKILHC
As to the kind of experiment: Aequorin-based calcium mobilization functional assay, CHO-K1 cells. Type of series: cell-based. The method, then:
Therefore, using in vitro functional assay, we next investigated the type of the interaction with this receptor.
Tested and reference compounds were dissolved in dimethyl sulfoxide (DMSO) at a concentration of 1 mM. Serial dilutions were prepared in 96-well microplate in assay buffer, and 8-to-10 concentrations were tested. A cellular aequorin-based functional assay was performed with recombinant CHO-K1 cells expressing mitochondrially targeted aequorin, human GPCR, and the promiscuous G protein Gαqi/5 for D2 receptor. After thawing, cells were transferred to assay buffer (DMEM/HAM’s F12 with 0.1% protease-free BSA) and centrifuged. The cell pellet was resuspended in assay buffer, and coelenterazine h was added at final concentrations of 5 µM. […] After 1 h of incubation, 50 µL of the cell’s suspension was dispensed using automatic injectors built into the radiometric and luminescence plate counter MicroBeta2 LumiJET (PerkinElmer, USA) into white opaque 96-well microplates preloaded with test compounds. Immediate light emission generated following calcium mobilization was recorded for 30 s. In antagonist mode, after 30 min of incubation, the reference agonist was added to the above assay mix and light emission was recorded again.
Background: Calcium assays in cells follow changes in intracellular calcium, usually with a dye or a luminescent sensor.

Where [3] appears, read: CHO-K1, read-out: Emax %, agonist mode.
Setting [4] is: read-out: pIC50 ± SEM, antagonist mode (converted).

Turning to `CCC(CN1CCN(c2ccccc2OC)CC1)NCCCOc1c(C)cccc1C.Cl.Cl` (centres unmarked) [HBK-10, N-(3-(2,6-dimethylphenoxy)propyl)-1-(4-(2-methoxyphenyl)piperazin-1-yl)butan-2-amine dihydrochloride], the “Recovery percent of parent compound after 30 min, fold higher than buspirone” value in series [1] was “more than 100 fold”. In addition, in series [1] (male, CD-1, mouse, liver microsomes, pH 7.4, protein concentration 0.8), the half-life (as a rule, how long it takes for the measured level to halve) at 20 µM is 25 min. In addition, the share remaining (as a rule, the share of the starting amount still present when the sample was taken) at 0.5 h, 20 µM in series [1] (male, CD-1, mouse, liver microsomes, pH 7.4, protein concentration 0.8, NADPH regenerating system, read-out: % Remaining after 30 min) was 36%. Further, in series [1] (male, CD-1, mouse, liver microsomes, pH 7.4, protein concentration 0.8, read-out: Intrinsic Clearance (Clint)), the microsomal CLint at 20 µM was 34.6 µL/min/mg. On human 5-HT2A receptor, the Ki is 191 nM. Further, the “Kb, fold lower compared with NAN-190” value in series [2] (5-HT1A, antagonist mode) stood at 10 fold. In addition, the Kb – broadly, the affinity of an antagonist, worked out from how it opposes an agonist – in series [2] (5-HT1A, antagonist mode, Cheng–Prusoff equation) worked out at 64 nM; on dopamine D2 receptor (D2, antagonist mode, Cheng–Prusoff equation) it was 2.76 nM. The Emax – broadly, the size of the effect at its maximum, as opposed to the concentration needed – in series [2] (setting [3]) amounted to 2%; in series [2] (CHO-K1, read-out: Emax %, antagonist mode), 0%; on dopamine D2 receptor (setting [3]), 9%. The IC50 in series [2] (setting [4]) was 191 nM; on dopamine D2 receptor (setting [4]) it was 9.33 nM. For the same compound, the “Kb, fold lower than Kb of chlorpromazine” value at dopamine D2 receptor (D2, antagonist mode) came to 3.1 fold.
